Test results from US20150250824A1, “METHODS AND COMPOSITIONS FOR EXPANSION OF STEM CELLS AND OTHER CELLS” (The Research Foundation For The State University Of New York, priority 2014, published 2015).
Entries after “also recorded” stand apart in the source; their conditions may differ. Read-outs that look alike come from different tables or passages of the source.

Legend:
C57BL/6J mice given 5-FU = tested on: C57BL/6J mice given 5-FU
Description: FIG. 25. […] Fifteen 8-week old mice were given IP injections of 5-FU (250 mg/kg) on day 0. Complete blood counts (CBCs) were done on day 2, 4, 6, 9, and 12. 616452 (10 mg/kg) was introduced via IP injections on day 5, 7 and 9. The above data is a representative sample of the overall experiment. Data values from day 4 are not included.
The inventors used C57BL/6J mice to administrate with SFU, a chemotherapy agent (150 mg/kg, intraperitoneal injection). Peripheral blood (100 ul each) from injected mice is collected for assessment of the peripheral blood count using a hematology analyzer.
616452 was introduced to eight of the mice at this point and was injected every other day for a total of three doses.

[1] = tested on: CD41+ cells sorted from cultured CB CD34+ cells
Description: FIG. 22. […] CB CD34+ cells were cultured with TPO, SCF, IL-3 for 7 days prior for CD41 selection by flow cytometry.
Cells were isolated for nestin (NSCs) and FLK-1 (hemangioblasts) before further differentiation. For cell sorting, cells were centrifuged for 5 minutes at 200 G at 4° C. and resuspended with 25 μl of CD41-FITC antibody for 30 minutes on ice. Cells are then washed gently with PBS and centrifuged for 5 minutes at 200 G at 4° C. Cells are then suspended at a concentration of 10^6 cells/ml of PBS containing 2% FBS. Cells are sorted via FACS Aria.
To test this issue and the extent of megakaryocytic population in response to the chemical induction, we cultured HUBC CD34^+ cells for 12-14 days in a media specific to megakaryocyte expansion (Nikougoftar Zarif, M., et al., Cell journal 13:173-178 (2011)). The cells were labeled with a conjugated CD41 antibody and sorted by flow cytometry sorting.

[2] = tested on: CD34+ cells isolated from human umbilical CB; type: cell-based
Description: Megakaryocytes derived from CB in vitro are usually smaller than megakaryocytes derived from bone marrow or mobilized peripheral blood from adults. Small megakaryocyte size may contribute to delayed platelet engraftment when cord blood is used for bone marrow transplantation. To test whether 616452 is able to increase fetal/neonatal megakaryocyte size and ploidy, CD34+ cells isolated from human umbilical CB were cultured in StemSpan SFEM containing SCF, TPO and Flt-3 Ligand. CB CD34+ cells in the presence of TPO after 4 or 8 day culture, were morphologically consistent of a relative homogenous population of small cells (FIG. 19A) and megakaryocytic features such as large nuclear size and cytoplasmic mass were hardly detectable.
One of the unique characteristics of megakaryocytes is the ploidy development of their nuclei, which can be easily measured using propidium iodide (PI), a fluorescent intercalating agent that binds to nucleic acids. Megakaryocyte (Mk) ploidy correlates well with their maturation and platelet production. […] Out of 10,000 events, the control cells only elicited only 1 cell with a ploidy of 16N and nothing thereon greater (FIG. 20A).

bone marrow CD34+ cells = tested on: bone marrow CD34+ cells
Description: 616452 (also called RepSox), was purchased separately from Biovision and Millipore. […] A fresh aliquot of the chemical was used at every media change and the final concentration in media is 10 μM.
(§1) Cells were centrifuged for 5 minutes at 200 G at 4° C. Cells were resuspended with CD34, 38 and/or 41 conjugated antibodies for 30 minutes on ice. Cells were then washed with 2 ml of PBS and centrifuged for 5 minutes at 200 G at 4° C. The final pellet was resuspended using 300 μl of 2% formalin.
Flow cytometry study was used to analyze the immunophenotype of cultured cells. As mature, large megakaryocytes may not be detectable by flow cytometry, bone marrow CD34+ cells were cultured for 4 days in order to detect younger, small megakaryocytes. […] However, flow analysis of megakaryocytes is known to be misleading due to the sheer size of the megakaryocytes, which can have a diameter ranging from 20 um to 120 um.

CD41− cells = settings: same conditions as CD41+ cells
Description: CD41− cells were also cultured under the same conditions with the control being induced using TPO and DMSO.

CB CD34+ cells = tested on: CB CD34+ cells
Description: FIG. 24. […] On the right is a heat map illustrating the values of expression in terms of fold increase over controls. Green is indicative of up-regulation while red is down-regulation.
Cells were analyzed via Qiagen's PAHS-054Z hematopoiesis array containing 81 genes.

[3] = tested on: CD34+ cells isolated from peripheral blood of G-CSF-mobilized donors; experiment: Ex vivo culture of mobilized peripheral blood CD34+ cells with compounds, CD34/CD38 flow cytometry; type: cell-based, human; settings: minimal cytokines
Description: CD34+ cells were isolated from cord blood or from peripheral blood of G-CSF-mobilized adult donors and cultured as follows. Mononuclear cells (MNCs) were isolated using a simple red blood cell lysis (15 minutes at room temperature using BD PharmLyse) or using Ficoll-Paque density gradient centrifugation (Jaatinen and Laine, Current Protocols Stem Cell Biol. 1:2A.1.1-2A.1.4. (2007)). The cells were then incubated with MACS CD34+ Microbead kit (Miltenyi Biotec, Auburn, Calif.) and run through a magnetic column resulting in selection for CD34+ cells. […] Human cortex neural stem cell (hcx NSC) cells were purchased from Millipore.
CD34+ cells were cultured in […] medium ([…] Technologies, Vancouver, BC, Canada) supplemented with 10% FBS, 100 ng/ml hSCF (human stem cell factor), 100 ng/ml hTPO (human thrombopoietin), 100 ng/ml hFLT-3 ligand (Human Fms-related Tyrosine Kinase 3) (Peprotech, Rocky Hill, N.J., USA) and 100 U/ml penicillin/streptomycin (Gibco). Human cortex Neural Progenitor Cell line (hcx NSC) was maintained in ReNcell medium: ReNcell NSC Maintenance medium (Millipore) supplemented with 20 ng/ml human EGF, 20 ng/ml human bFGF (Peprotech) and 100 U/ml penicillin/streptomycin. For expansion of cells targeted for cell sorting, we used the same media containing a different cytokine cocktail of 100 ng/ml SCF, TPO and 10 ng/ml IL-3.
as §1
CD34+ cells isolated from peripheral blood of G-CSF-mobilized donors were cultured for 11 days with minimal cytokines and the 4 chemical cocktail (C6FZ). […] The population bearing CD34+/CD38− is associated with long-term repopulating HSCs.
CD34+ cells isolated from the peripheral blood of G-CSF-mobilized donors were next cultured for 11 days with minimal cytokines and the individual compounds, C, 6, F and Z (FIG. 13).

[4] = greater dose vs 10 μM standard (FIG. 20B)
[5] = Giemsa-Wright staining (FIG. 19B)

Cc1cccc(-c2n[nH]cc2-c2ccc3ncccc3n2)n1 [compound 616452, 2-[3-(6-methyl-2-pyridinyl)-1H-pyrazol-4-yl]-1,5-naphthyridine]
platelet counts by day 12 (C57BL/6J mice given 5-FU; 10 mg/kg every other day, three doses, after 5-FU): almost twice as many platelets as normal mice | white blood cell count (C57BL/6J mice given 5-FU; chemotherapy treated mice): significant improvement or recovery of the white blood cell count | platelet counts in mice not given 5-FU (C57BL/6J mice given 5-FU; mouse, in vivo): little to no change | time until cells began to increase their size [1]: ≤ 2 days | cells of 8N out of 10,000 events ([1]; 8 days of induction): 2018 cells | cells of 16N out of 10,000 events ([1]; 8 days of induction): 585 cells | cells of 32N or greater out of 10,000 events ([1]; 8 days of induction): 86 cells | fold increase in 8N ([1]; 8 days, vs DMSO control): 30 fold | fold increase in the number of 4N ([1]; 8 days, vs DMSO control): 4.5 fold | cells positive in CD41 live cell stain ([1]; after 8 days of induction): 95% | cluster size ([1]; around day 4): 5-15 cells | cluster size ([1]; by day 6): 25-50 cells | cells appearing large in size by eye ([1]; day 6): approximately 80% | highest ploidy reached ([1]; within 8 days of culture): ≤ 64N | cluster formation at high concentrations [2]: no clusters in 4× concentrations or higher | culture composition by 8 days [2]: predominately composed of megakaryocytes | change in number of 8N, 16N and 32N cells between 8 and 12 days of induction ([2]; 10 μM): nearly doubled | days of culture until appearance of large megakaryocyte-like cells ([2]; 10 μM): 4 days | growth of the cells relative to control ([2]; 10 μM (1×)): 25-50% | megakaryocytic features (large nuclear size, cytoplasmic mass) ([2]; 4 or 8 day culture with TPO): megakaryocytes with these features were easily observed | increase of CD41 expression compared to control ([2]; 4 days induction, flow cytometry): 27% | number of cells with greater ploidy ([2]; 8 days induction): drastically increased number of cells with greater ploidy | cells of 16N ploidy out of 10,000 events ([2]; 8 days induction, PI staining): over 100 cells | CD34+CD41+ population ([2]; flow analysis (FIG. 19C)): an increase in the CD34^+ CD41^+ population | increase of the CD41+ population ([2]; flow analysis, 5 days induction (FIG. 19C)): 25-40% | fold increase over the standard in 8N cells [2, 4]: 1.68 fold | fold increase over the standard in 16N cells [2, 4]: 2.5 fold | fold increase over the standard in 32N cells [2, 4]: 6 fold | cell death ([2]; human, 48 h, 100 μM): all the cells died within 48 hours | fold increase of 4N cells over control ([2]; time dependence study): 5 fold | fold increase of 8N cells over control ([2]; time dependence study): 30 fold | fold increase of 16N cells over control ([2]; time dependence study): 80 fold | fold increase of CD34+CD41+ cells (bone marrow CD34+ cells; 4 days culture, flow cytometry): 2 fold | average cell size (bone marrow CD34+ cells; [5]): around 50 um | cell size, largest (bone marrow CD34+ cells; [5]): ≤ 90 μm | percentage of CD41 increased (bone marrow CD34+ cells; after 5 days of culture, 10 μM, N>3 experiments): 50-100% | increase in the CD41+ population (bone marrow CD34+ cells; within 4 days of culture, flow cytometry): ~100% | ploidy development (CD41− cells): slight increase in ploidy | PF4 expression on day 4 compared to that on day 2 (CB CD34+ cells): more than 11 fold | genes down-regulated (CB CD34+ cells; day 2 of induction): one | genes down-regulated (CB CD34+ cells; day 4 of induction): four | expansion of CD34+ cells ([3]; 5 days, 10 μM): rapidly expanded the CD34+ cells | effect on CD34+CD38+ and CD34+CD38− populations ([3]; 11 days, C, 6, F at 10 μM, Z at 100 nM, listed as 6): best effect enhancing both CD34+CD38- and CD34+ and CD38+ positive cells; also recorded: ability to enhance both the population of single positive (CD34+CD38−) and double positive (CD34+CD38+) cells; also recorded: the most effects on the CD34+CD38− population
